The results in this text go back to US20240058318A1, “DEGRADING PKCB1 TO TREAT CANCER” (Mayo Foundation for Medical Education and Research, priority 2020, published 2024).

Type in all cases: cell-based
One experiment concerns MDAMB231 cells. Briefly: Crystal violet (CV) proliferation assay, MDAMB231. Conditions: MDAMB231 (PKCß1 high, Rb positive), 2000 cells. On the procedure:
Cell proliferation rates were determined using crystal violet assays. […] Cells were fixed with 25% glutaraldehyde for 10 minutes with shaking, washed 5 times with distilled water, stained with a 1% crystal violet solution (solubilized in 25% methanol) for 10 minutes, washed again 5 times and allowed to dry. De-staining was performed using […] sodium citrate in 50% ethanol followed by quantification using a 96 well spectrophotometer set at an absorbance of 550 nm.

The subject of experiment [1] is unfolded protein response (UPR) mRNAs. In words: qRT-PCR of UPR-associated mRNAs in MDAMB231 cells. Conditions: 1 μM, 0-48 hours, fold relative to DMSO. On the procedure:
To evaluate the effect of PROTAC 7 (Pr-7) on expression of various proapoptotic polypeptides, triple negative MDAMB231 cells were treated with DMSO, 1 μM Pr-7, or 1 μM ENDX, and mRNA levels were assessed by qRT-PCR at 0-, 1-, 8-, 24-, and 48-hour time points.
Triple negative breast cancer MDA-MB-231 cells were cultured in phenol-red free DMEM/F12 medium supplemented with 10% FBS and 1% AA. Cells were plated at 1×10^6 cells per 10 cm dish. The next day, the cells were treated with DMSO, 1 μM Pr-7 or 1 μM ENDX for 1, 8, 24, and 48 hours, and were then processed for RNA and RIPA protein analysis.
In particular, total RNA from tissue samples and cell lines was extracted using the RNEASY® Plus mini kit (Qiagen; Hilden, Germany), cDNA was generated using a ISCRIPT™ cDNA synthesis kit (Bio-Rad; Hercules, CA) and qRT-PCR reactions were set up using PERFECTA® SYBR™ green fast mix reagents (Quanta BioSciences; Beverly, MA) and gene-specific primer sets (IDT; Coralville, IA). The forward and reverse primer sequences for the genes used in this analysis were obtained from the Harvard PrimerBank database. Amplification of HPRT and tubulin was used as an internal control. Relative expression between samples was calculated by the comparative Ct method.

Experiment [2] has as its system Rb-proficient (MDAMB231) and Rb-deficient (BT549 and MDAMB436) TNBC cells. In words: CV proliferation assay, TNBC cells (statements across lines). As to conditions: MDAMB231 and BT549 cells (FIG. 4A and TABLE 1). The method, then:
(§1) Cell proliferation rates were determined using crystal violet assays. One thousand cells per well were plated in 96 well tissue culture plates and treated the following day with a bifunctional compound or control for 7 days in replicates of 8. Cells were fixed with 25% glutaraldehyde for 10 minutes with shaking, washed 5 times with distilled water, stained with a 1% crystal violet solution (solubilized in 25% methanol) for 10 minutes, washed again 5 times and allowed to dry. De-staining was performed using […] sodium citrate in 50% ethanol followed by quantification using a 96 well spectrophotometer set at an absorbance of 550 nm.
as §1, with “using CV” for “using crystal violet”, “assays. Two” for “assays. One”, “thousand (2000) or 4000” for “thousand”, “for 6” for “for 7”, “of 6.” for “of 8.”

In general, IC50 refers to the concentration that gives 50% inhibition. Low readings indicate inhibition by little substance, high ones a need for much substance. In the case of `CC/C(=C(\c1ccc(O)cc1)c1ccc(OCCN(C)C(=O)COCCNC(=O)Cc2ccc3c(c2)CN(C2CCC(=O)NC2=O)C3=O)cc1)c1ccccc1` (stereo not drawn) [TC-Pr-007], the IC50 in the experiment with MDAMB231 cells turned out to be 87 nM. In experiment [1], the “mRNA expression of UPR-associated genes” value was “increased mRNA expression for CHOP, MCL-1, PUMA, NOXA, and Xbp-1”. Further, the induction of apoptosis result in experiment [2] was “induced apoptosis”.
